System: CYP1A1 mRNA in primary human hepatocytes
Experiment: CYP1A1 mRNA expression in primary human hepatocytes
Format: cell-based
[1] = hepatocyte culture LH45, 10 µM, 24 h
[2] = hepatocyte culture LH45, 50 µM, 24 h
[3] = hepatocyte culture LH46, 10 µM, 24 h
[4] = hepatocyte culture LH46, 50 µM, 24 h
[5] = hepatocyte culture LH47, 50 µM, 24 h
[6] = hepatocyte culture LH48 (so in the source), 50 µM, 24 h

| CYP1A1 mRNA fold induction over the vehicle-treated cells, LH45 (10 µM) | CYP1A1 mRNA fold induction over the vehicle-treated cells, LH46 (10 µM) | CYP1A1 mRNA fold induction over the vehicle-treated cells, LH45 (50 µM) | CYP1A1 mRNA fold induction over the vehicle-treated cells, LH46 (50 µM) | CYP1A1 mRNA fold induction over the vehicle-treated cells, LH47 (50 µM) | CYP1A1 mRNA fold induction over the vehicle-treated cells, LH48 (50 µM) | Structure (SMILES) | CYP1A1 mRNA fold induction over the vehicle-treated cells, LH45 [1] | CYP1A1 mRNA fold induction over the vehicle-treated cells, LH45 [2] | CYP1A1 mRNA fold induction over the vehicle-treated cells, LH46 [3] | CYP1A1 mRNA fold induction over the vehicle-treated cells, LH46 [4] | CYP1A1 mRNA fold induction over the vehicle-treated cells, LH47 [5] | CYP1A1 mRNA fold induction over the vehicle-treated cells, LH48 [6] |
| --- | --- | --- | --- | --- | --- | --- | --- | --- | --- | --- | --- | --- |
| – | – | – | – | – | – | COc1cc(-c2[o+]c3cc(O)cc(O[C@@H]4O[C@H](CO)[C@@H](O)[C@H](O)[C@H]4O)c3cc2O[C@@H]2O[C@H](CO)[C@@H](O)[C@H](O)[C@H]2O)cc(OC)c1O.[Cl-] [MAL-2, malvidin-3,5-di-O-glucoside chloride] | 1.14 ± 0.28 fold | 0.44 ± 0.01 fold | 1.72 ± 0.39 fold | 1.64 ± 0.38 fold | 0.56 ± 0.07 fold | 0.93 ± 0.09 fold |
| 0.26 ± 0.01 fold | 1.48 ± 1.14 fold | 0.20 ± 0.04 fold | 1.72 ± 0.72 fold | 2.44 fold | 0.02 ± 0.00 fold | OC[C@H]1O[C@@H](Oc2cc3c(O)cc(O)cc3[o+]c2-c2ccc(O)c(O)c2)[C@H](O[C@@H]2OC[C@@H](O)[C@H](O)[C@H]2O)[C@@H](O)[C@@H]1O.[Cl-] [CYA-8, cyanidin-3-O-sambubioside chloride] | – | – | – | – | – | – |
| – | – | – | – | – | – | COc1cc(-c2[o+]c3cc(O)cc(O)c3cc2O[C@@H]2O[C@H](CO)[C@@H](O)[C@H](O)[C@H]2O)ccc1O.[Cl-] [PEO-1, peonidin-3-O-glucoside chloride] | 0.21 ± 0.03 fold | 0.80 ± 0.22 fold | 2.14 ± 0.18 fold | 2.48 ± 0.57 fold | 0.51 ± 0.07 fold | 0.08 ± 0.03 fold |
| 0.69 ± 0.06 fold | 0.67 ± 0.07 fold | 1.16 ± 0.17 fold | 0.61 ± 0.08 fold | 0.34 ± 0.11 fold | 0.07 ± 0.01 fold | Oc1cc(O)c2cc(O[C@@H]3OC[C@H](O)[C@H](O)[C@H]3O)c(-c3ccc(O)c(O)c3)[o+]c2c1.[Cl-] [CYA-5, cyanidin-3-O-arabinoside chloride] | – | – | – | – | – | – |
| 1.31 ± 0.25 fold | 2.97 ± 0.39 fold | 0.46 ± 0.03 fold | 0.28 ± 0.05 fold | 0.51 ± 0.16 fold | 0.05 ± 0.02 fold | OC[C@H]1O[C@@H](O[C@H]2[C@@H](Oc3cc4c(O)cc(O)cc4[o+]c3-c3ccc(O)c(O)c3)O[C@H](CO)[C@@H](O)[C@@H]2O)[C@H](O)[C@@H](O)[C@@H]1O.[Cl-] [CYA-4, cyanidin-3-O-sophoroside chloride] | – | – | – | – | – | – |
| 0.65 ± 0.11 fold | 2.62 ± 0.41 fold | 0.34 ± 0.06 fold | 1.85 ± 0.09 fold | 0.25 ± 0.02 fold | 0.05 ± 0.02 fold | OC[C@H]1O[C@@H](Oc2cc3c(O)cc(O)cc3[o+]c2-c2ccc(O)c(O)c2)[C@H](O)[C@@H](O)[C@H]1O.[Cl-] [CYA-7, cyanidin-3-O-galactoside chloride] | – | – | – | – | – | – |
